The record followed here is the OPERA property sets (Mansouri et al. 2018).

Structures are written as SMILES.

Details in the first data set: not given
`CC1(C)C(C=C(Cl)Cl)C1C(=O)OC(C#N)c1ccc(F)c(Oc2ccccc2)c1` (stereo not given) came in with a log10 Koc (L/kg) of 5, a log10 vapour pressure (mmHg) of -9.82 and a melting point of 60 °C.

In the case of `Nc1cccc2cccc(N)c12`, the melting point was found to be 66.5 °C and the ready biodegradability result is on record as “not readily biodegradable”.

Turning to `CCC(C(=O)NC(=O)NC(C)=O)c1ccccc1` (stereo not given), the melting point turned out to be 100 °C.

Take `CCN1C(=O)c2ccccc2C1Nc1ccc(OCCN2CCCCC2)cc1` (stereo not given): the melting point stood at 106 °C.

In turn, `c1ccc2[nH]ncc2c1` came in with a boiling point of 269 °C and a melting point of 148 °C.

Consider `Clc1cc(Cl)c(-c2cccc(Cl)c2Cl)cc1Cl`, for which the log10 Henry constant (atm·m³/mol) is -4.13 and the log10 Koc (L/kg) is 5.69.

In turn, `C[C@]12CCC(=O)C=C1CC[C@@H]1[C@@H]2C(=O)C[C@@]2(C)[C@H]1CC[C@]2(O)C(=O)CO` had a melting point of 222 °C.

The compound `CC(C)(C)OC(=O)C(F)(F)F` returned a boiling point of 83 °C.

In turn, `C=C(C)C1CC=C(CO)CC1` (stereo not given) registered a boiling point of 244 °C.

`C1=COCCC1` returned a boiling point of 86 °C and a melting point of -70 °C.

As to `O=C(O)c1ccccc1`, the boiling point was determined as 249 °C, the log10 Koc (L/kg) worked out at 1.5, the log10 vapour pressure (mmHg) is -3.15 and the melting point was 122 °C. For the same compound, the ready biodegradability entry is recorded as “readily biodegradable”.

Consider `CCc1c(CC)c(CC)c(CC)c(CC)c1CC`, for which the boiling point is 298 °C and the melting point came to 129 °C.

For `Cc1coc2ccccc2c1=O`, the melting point amounted to 68 °C.

On to `c1ccc(C2c3ccccc3-c3ccccc32)cc1`, for which the melting point came out at 147 °C.

For the compound `CCCCCCCCC(C)C`, the boiling point was found to be 189 °C, the log10 vapour pressure (mmHg) is -0.22 and the melting point was -48.9 °C.

`N#CCc1ccccc1[N+](=O)[O-]`: the melting point is 84 °C.

Consider `CC(C)(C)c1cc(Cn2c(=O)n(Cc3cc(C(C)(C)C)c(O)c(C(C)(C)C)c3)c(=O)n(Cc3cc(C(C)(C)C)c(O)c(C(C)(C)C)c3)c2=O)cc(C(C)(C)C)c1O`, for which the ready biodegradability result is “not readily biodegradable”.

The compound `C1C2CC3C4CC5CC(C14)C(C2)C3C5` displayed a log10 biodegradation half-life (days) of 3.3.

`CCC(O)C(=O)O` (stereo not given) displayed a melting point of 44.2 °C.

As for `C=C=CCCCC`, the boiling point came to 106 °C.

Take `OCC(CO)(CO)CO`: the melting point is 260 °C and the ready biodegradability result is reported as “readily biodegradable”.

Take `O=C(O)c1cc(Cl)ccc1O`: the melting point is 172 °C.

`CC(C)CCC(=O)c1ccoc1` had a boiling point of 196 °C.

For `[O-][n+]1ccccc1`, the melting point is 65.5 °C.

For `Clc1cc(Cl)c(-c2c(Cl)cccc2Cl)c(Cl)c1`, the melting point was 85 °C.

The compound `CC1=NN(c2ccc([N+](=O)[O-])cc2)C(=O)C1[N+](=O)[O-]` (stereo not given) came in with a melting point of 116 °C.

Compound `CC(C)(C)NCCNC(C)(C)C` returned a boiling point of 197 °C and a log10 vapour pressure (mmHg) of -0.575.

As to `CC1(c2ccccc2)OC(C(=O)O)=CC1=O` (stereo not given), the melting point worked out at 176 °C.

In turn, `CCCCCCC(C)CCC` (stereo not given) displayed a boiling point of 187 °C and a melting point of -77.5 °C.

In the case of `CCCC(O)C(C)(C)C` (stereo not given), the boiling point came to 156 °C.

With `O=c1c(O)c(-c2ccccc2)oc2ccccc12`, the melting point amounted to 172 °C.

`O=c1[nH]c2ccccc2c(-c2ccccc2)c1O`: the melting point worked out at 268 °C.

Regarding `COc1ccc(OC)cc1`, the boiling point stood at 213 °C, the melting point stood at 59 °C and the ready biodegradability entry is “readily biodegradable”.

`C=C[C@H]1CN2CCC1C[C@@H]2[C@@H](O)c1ccnc2ccccc12` (stereo not given in full) came in with a melting point of 238 °C.

In the case of `c1ccc2cc(-c3ccc4ccccc4c3)ccc2c1`, the boiling point amounted to 452 °C and the melting point was 188 °C.

Consider `C=CC(=O)OCC(CC)CC`, for which the log10 vapour pressure (mmHg) came to 0.23 and the melting point is -70 °C.

`CC(=O)Oc1cccc(O)c1` came in with a boiling point of 283 °C.

For the compound `O=P(O)(Oc1ccccc1)Oc1ccccc1`, the melting point came to 67.5 °C.

As to `C#CCCCCCCCCC`, the boiling point came out at 196 °C and the melting point was -25 °C.

`Cc1c(Cl)cccc1[N+](=O)[O-]` returned a boiling point of 238 °C and a melting point of 37.8 °C.

In turn, `C1CCC2(CC1)CCCCC2` came in with a boiling point of 207 °C.

Compound `CNC(C)Cc1ccc(O)cc1` (stereo not given) gave a melting point of 161 °C.

For `C=CCOCC1CO1` (stereo not given), the boiling point was found to be 154 °C.

`CCC(=O)c1ccc(C)cc1` had a boiling point of 236 °C, a log10 vapour pressure (mmHg) of -1.03 and a melting point of 7.2 °C.

Take `CC(C)C1(Cc2ccco2)C(=O)NC(=O)NC1=O`: the melting point was 169 °C.

As to `O=C1CC(=O)NC(=S)N1`, the log10 vapour pressure (mmHg) was -7.7.

In the case of `COc1cc2c(c(OC)c1OC)-c1ccc(O)c(=O)cc1[C@@H](NC(C)=O)CC2`, the melting point is 178 °C.

As to `CCOC(N)=O`, the boiling point came out at 185 °C, the log10 vapour pressure (mmHg) is -0.582, the melting point came out at 49 °C and the ready biodegradability entry is listed as “not readily biodegradable”.

As for `CCOC(=O)CS`, the boiling point came to 157 °C.

With `C=CCn1c(N)cc(=O)n(CC)c1=O`, the melting point was 143 °C.

For the compound `CC(C)Oc1cc(-n2nc(C(C)(C)C)oc2=O)c(Cl)cc1Cl`, the log10 Koc (L/kg) came out at 3.51, the log10 vapour pressure (mmHg) was -6.95, the melting point was determined as 90 °C and the ready biodegradability entry is on record as “not readily biodegradable”.

The compound `CC(Cl)C(=O)O` (stereo not given) showed a boiling point of 185 °C.

For the compound `CCCCOS(=O)OCCCC`, the boiling point worked out at 230 °C.

Take `COc1ccc(OC)c([N+](=O)[O-])c1`: the melting point was 72.5 °C.

`Nc1ccc([N+](=O)[O-])cc1O` yielded a melting point of 208 °C.

With `Cc1ccc(Cl)cc1`, the boiling point amounted to 162 °C, the log10 vapour pressure (mmHg) was determined as 0.43, the melting point was determined as 7.5 °C and the ready biodegradability entry is “not readily biodegradable”.

For `O=C(O)Cc1c(F)c(F)c(F)c(F)c1F`, the melting point worked out at 109 °C.

`C1CCNC1` came in with a boiling point of 86.5 °C, a log10 Henry constant (atm·m³/mol) of -5.62, a log10 Koa of 4.07 and a log10 vapour pressure (mmHg) of 1.8. The same compound returned a melting point of -57.8 °C.

`CC(C)OC=O` returned a boiling point of 68.2 °C, a log10 vapour pressure (mmHg) of 2.14 and a melting point of -80 °C.

Take `CC1(C)CCCC(O)C1` (stereo not given): the boiling point came to 185 °C and the melting point was 11.5 °C.

For the compound `C=Cc1cccc(Cl)c1`, the log10 vapour pressure (mmHg) is -0.0083 and the ready biodegradability result is given as “not readily biodegradable”.

`N#Cc1ccc2[nH]ccc2c1` displayed a melting point of 107 °C.

As for `CCC`, the boiling point was -42.1 °C, the log10 Koa is 0.97, the log10 vapour pressure (mmHg) worked out at 3.85 and the melting point was -188 °C. Also, the ready biodegradability entry is on record as “readily biodegradable”.

Consider `CC(=O)C(C)(C)C`, for which the boiling point was 106 °C, the log10 vapour pressure (mmHg) came out at 1.5 and the melting point is -52.5 °C.

For `OC(c1ccc(F)cc1)(c1cncnc1)c1ccccc1Cl` (stereo not given), the melting point was found to be 126 °C.

Take `O=C(Cl)/C=C/C(=O)Cl`: the boiling point was 159 °C and the log10 vapour pressure (mmHg) is 0.316.

For `CC(=O)CC(=O)Nc1ccccc1`, the log10 vapour pressure (mmHg) was -4.28, the melting point is 86 °C and the ready biodegradability entry is “readily biodegradable”.

Compound `CCC[C@@H](O)CC` came in with a boiling point of 135 °C and a log10 vapour pressure (mmHg) of 0.682.

Take `COC(=O)c1ccccc1N`: the boiling point was found to be 256 °C, the log10 vapour pressure (mmHg) is -1.57 and the melting point came out at 24.5 °C.

`CCCCCCC(O)C(=O)O` (stereo not given) displayed a melting point of 70 °C.

On to `c1ccc2c(c1)C1c3ccccc3C2c2ccccc21`, for which the melting point is 254 °C.

Regarding `FC(F)Cl`, the boiling point is -40.7 °C, the log10 Henry constant (atm·m³/mol) was -1.39, the log10 vapour pressure (mmHg) turned out to be 3.86 and the melting point is -157 °C. Also, the ready biodegradability result was “not readily biodegradable”.

Regarding `Sc1cccc(Cl)c1`, the boiling point was 206 °C.

Staying with this data set, now noted: fish.
As for `Nc1cccc2cccc(N)c12`, the log10 BCF came out at 0.8 and the log10 biotransformation half-life (days) is -0.73.

In turn, `Clc1cc(Cl)c(-c2cccc(Cl)c2Cl)cc1Cl` yielded a log10 biotransformation half-life (days) of 2.55.

Compound `CCCCCCCCC(C)C` gave a log10 biotransformation half-life (days) of 0.1.

The compound `OCC(CO)(CO)CO` yielded a log10 BCF of 0.1.

In turn, `Cc1c(Cl)cccc1[N+](=O)[O-]` had a log10 BCF of 1.99.

`CC(C)Oc1cc(-n2nc(C(C)(C)C)oc2=O)c(Cl)cc1Cl` came in with a log10 BCF of 3.08 and a log10 biotransformation half-life (days) of 0.77.

For `Cc1ccc(Cl)cc1`, the log10 BCF was 1.76 and the log10 biotransformation half-life (days) is -0.83.

The melting point is the temperature of the solid-liquid transition. As usually defined, the boiling point is the temperature at which the vapour pressure of the liquid equals the pressure above it.
